Read-outs that look alike come from different tables or passages of the source.
How the values were obtained:
[1] = Release profile from hydrogel-filled MNAs; assay type: physicochemical; conditions: three concentrations, 3 mm and 2 mm MNAs, 72 hrs in PBS
Experimental: MNAs were filled with this BSA-containing alginate solution and Calcium Chloride (CaCl2) used for crosslinking following this protocol: first placing MNAs in 3% (w/v) agarose gel containing 2% (v/v) CaCl2 for few minutes and then pipetting additional 2% (v/v) CaCl2 over the tops to ensure complete crosslinking.
To perform a 3-day long release study, each needle array was placed in 0.5 mL of PBS. Samples were taken from solution at each time point over the course of 72 hrs and were stored in micro vials at room temperature over the duration of the release. For the final evaluation of protein release, 150 μL of each sample added to 96 well plates mixed with 150 μL of working reagent. Working reagent solution was made from a mixture of reagent A, B and C of BCA protein kit with the ratio of 24:24:1. Once reagents and samples were mixed, plates were incubated at 37° C. for an hour, and a plate reader (BioTech) used to read the absorption. Absorption values from the plate reader converted to concentrations using a calibration curve.
After filling the MNAs with the solution, PEGDA was photocrosslinked for approximately 30 seconds using a handheld UV light. A similar experimental protocol followed to study protein release from PEGDA over the course of 72 hours.

[2] = topical delivery; 100 μL of 5 mg/mL; 3% agarose; 30 min
Text: Agarose and other agar-based hydrogels have been widely used as skin models in previous studies^37,38. […] The intensity is also plotted quantitatively against the depth of penetration (FIG. 15C).

[3] = system: full-thickness skin wounds of diabetic (Lepr^db) mice; conditions: for average healing rate: 100 μL of 500 ng/mL on days 5 and 7; for histological features at the central region of the wounds (H&E): day 19
Text: On the day of surgery, mice received a full thickness (1×1 cm^2) skin wound on their dorsum. Mice with the full thickness (1×1 cm^2) wound on their dorsum were kept untreated for 5 days to allow eschar formation. Animals received treatment via three different delivery methods on days 5 and 7 post-surgery. […] Similar to in vitro experiments, to minimize the potential injury upon the delivery of therapeutics intradermally using LJI, a layer of agarose was placed between the wound and the nozzle.
Small Animal studies: Murine animal procedures were approved by the Institutional Animal Care and Use Committee (IACUC) of the University of Nebraska, Lincoln. Six to seven weeks old B6.BKS(D)-Lepr^db/J mice were obtained from the Jackson Laboratory (Bar Harbor, Me.). Since this mouse strain had congenic obesity, the animals were put on a special food diet. […] On day 0 of the study, 5% isoflurane was provided via a nose cone for anesthetization of animals and 3% isoflurane was used for maintaining sedation. The hair on the dorsal area was shaved, the skin was sterilized, and a full-thickness skin cut of 1 cm×1 cm was created. Buprenorphine SR was administered for pain relief at the time of surgery.
Animals received treatments on day 5 and day 7 post-surgery. […] To minimize the potential damage of solutions delivered by LJI to mice, an approximately 9 mm thick layer of 5% (w/v) of agarose was placed between the LJI nozzle and animal skin (FIG. 21).
Animals were inspected daily for wound closure, weight change and vitals. All animals were sacrificed on day 19 post-surgery using CO2 asphyxiation using a 30% oxygen displacement rate. The wound tissue was harvested and fixed in 10% neutral buffered formalin for further histological study.
Histological analysis: Sections of harvested skin were fixed by immersion in 10% neutral buffered formalin and routinely processed on a Tissue-Tek VIP 5 Tissue Processor. After processing, the tissues were embedded in paraffin blocks and were sectioned at 4 μm thick on a HM 355S Thermo Scientific microtome. Slides were deparaffinized and stained with H&E using a Leica ST5020 H&E stainer. Histological evaluation was conducted by a board certified veterinary anatomic blinded to the experiment.
Immunohistochemistry staining: In the murine study, formalin-fixed and paraffin-embedded biopsies were cut into 7 μm thick samples. Slides were deparaffinized, hydrated and washed using xylene and ethanol solutions. Subsequently, a heat mediated antigen retrieval step was performed at 95° C. for […]. The sections were blocked using 2.5% normal horse serum for 30 min at room temperature, and incubated with primary antibody (anti-CD31) at 4° C. overnight. Tissue sections were then treated with 3% hydrogen peroxide for 10 minutes at room temperature to block the peroxidase activity. Secondary antibody was then applied for 30 minutes at room temperature. To form a colored precipitate, DAB solution was incubated on the slides for 3-5 minutes. Finally, counterstaining was performed using hematoxylin for 30 seconds, and sections were dehydrated, washed, covered with mounting solution, and cover slipped.

HUVECs = conditions: VEGF equivalent to 50 ng/mL through MNAs
Experimental: To develop a method for mimicking the crust and necrotic tissue covering chronic wounds, 12-well cell culture inserts were used and covered with […] of 3% (w/v) agarose solution […]. […] Similar techniques were applied for scratch assay with seeding HUVECs in the bottom of chamber covered by 2 mL basal media.
To assess the effectiveness of the released factors, a standard scratch assay was conducted. Wells of a 12-well plate were coated by Geltrex. After aspirating the Geltrex from the wells, 30,000 cells per well were seeded and cultured until a confluent monolayer formed in each well. The cells were cultured in basal media supplemented with 2% FBS for 6 hours. prior to the experiments. On the day of experiments, an approximately 200 μm wide scratch was formed using a 200 μL micropipette tip. […] Fixed points of each well (two points per well) were imaged using a Nikon Ti inverted microscope after 0, 2, and 4 hours after each treatment application. A total of 4 samples per condition was tested.

[4] = system: full-thickness wounds on the dorsum of Yorkshire pigs; conditions: day 14
Experimental: To serve as controls, a group of wounds was treated with PBS for evaluating the potential effects of MNA administration, and a group was left untreated.
Large animal studies: The procedures for porcine animal studies were performed at Toxikon Corporation (Bedford, Mass.). The study protocol was approved by Toxikon's Institutional Animal Care and Use Committee, and conformed to federal animal laws and regulations. Three Yorkshire pigs (Animal Biotech Industries, Danboro, Pa.), 70-80 kg each, were anesthetized by intramuscular administration of 3.3 mg/kg ketamine, 2.2 mg/kg xylazine, 1.1 mg/kg acepromazine, and 0.02 mg/kg atropine. 0-5% isoflurane and oxygen were provided to maintain general anesthesia. Pain management was achieved by administration of a transdermal patch releasing 2-3 mkg/kg/h fentanyl per hour for 72 hours (Duragesic, Janssen). In addition, buprenorphine 0.01-0.03 mg/kg was delivered intramuscularly at the end of the surgery.
Circular full-thickness wounds (d=2.5 cm) were created on the dorsum of each pig. After marking the wounds in parallel paraspinal stripes, the outlines were tattooed with red ink using an electric tattoo marker (Spaulding & Rogers Mfg., Inc., Voorheesville, N.Y.). Full-thickness wounds down to fascia were excised. […]
For macroscopic wound evaluation, wound contraction was measured of the tattooed margins from macroscopic wound photos using Image J software (NIH, Bethesda, Md.). Open wound area (S1) and the area inside tattooed margin (S2) were measured and compared with original wound size on day 0 (S0=5 cm^2). The wound contraction and non-contracted wound closure contributions were calculated as 100×(S2−S0)/S0 and 100×(S2−S1)/S0, respectively.
In the swine experiment, the wounds were excised using a scalpel and fixed in formalin for immunohistochemical analysis. […] The wound sections were immunostained for von Willebrand Factor (vWF), smooth muscle actin (SMA), and CD3 based on manufacturers' protocols and the amount of positive staining was quantified in a blinded-manner using a light microscope.

[5] = system: full thickness skin wounds of diabetic (Lepr^db) mice
Experimental: To further investigate the potential benefits of MNAs in treatment of diabetic and chronic wounds, an animal study was conducted on diabetic mice with cutaneous wounds. Homozygous mice for the diabetes spontaneous mutation (Lepr^db) become identifiably obese around 3 to 4 weeks of age. On day 10 to 14 elevations of plasma insulin begin and at four to eight weeks the blood sugar level elevates. With a delayed wound healing and an increased metabolic efficiency this mouse strain serves as a suitable model for chronic wound research.
On day one, all the mice received a square shaped 1 cm×1 cm full thickness skin cut on their dorsum. The animals were kept untreated for 5 days to allow the formation of wound crust. On days 5 and 7 post-surgery, animals received the planned treatment. T weight of each animal was recorded periodically, and wound areas were assessed every two days and photographed to monitor investigate wound closure (FIG. 5A).
Animal Studies: All animal procedures were reviewed and approved by the Institutional Animal Care and Use Committee (IACUC) of the University of Nebraska, Lincoln. Five weeks old B6.BKS(D)-Lepr^db/J mice were purchased from the Jackson Laboratory (Bar Harbor, Me.) weighted between 34-43 grams and accommodated in University of Nebraska, Life Science, animal facility for one week before the wound injury procedure. The animals were on special food diet during the entire research period.
In the day 1, all animals were anesthetized by 5% of isoflurane using anesthesia system, (VetFlo, Kent Scientific, Torrington, Conn.) via a nose cone. The hair on the dorsal region of animals was shaved using an electric razor. The skin was sterilized, and a full thickness skin cut of 1 cm×1 cm was created. The wounds were covered with a regular bandage. All mice placed back in separate cages individually after recovering from anesthesia. Animals were monitored for wound condition, vitals and wellbeing, and weight gain/loss trends daily.
To simulate the real wound conditions covered by crust and necrotic tissues, treatment start points were on day 5 by which a complete crust was formed on the wounds. […] In the topical delivery group, 100 μl of the solution was poured topically using a pipette on the top of the wound and the animals were let to sit for about 10 minutes, the wound was then covered by a fresh dressing. In MNAs delivery group, 100 μl of the solution was delivered using the MNAs and after 10 min, the microneedles were removed and the wound was covered by a fresh dressing. Animals of negative control received no treatment. […] Wounds were inspected every 2 days and the bandage was changed and a picture of the wound was taken using a digital camera.
On day 19, all animals were sacrificed using 20% CO2 volume displacement (flow rate cage volume/per minute) poisoning overdose and wound tissue was harvested and fixed in using 4% paraformaldehyde (PFA).
Histology: Frozen sections of haired skin were stored in a −80° C. ultralow freezer prior to sectioning on a cryotome. The sections of skin were cut 10 μm thick using a Thermo Scientific CryoStar NX50, routinely stained with hematoxylin and eosin on a Leica ST5020 H&E stainer, and coverslipped with a Leica CV5030 coverslipper. A veterinary anatomic pathologist who is board certified by the American College of Veterinary Pathologists performed all histological evaluations. Immunohistochemistry was done manually using Anti-CD31, rabbit host species (ab28364, Abcam, MA, USA).

Molecule: CCN(CC)c1ccc2c(-c3ccccc3C(=O)O)c3ccc(=[N+](CC)CC)cc-3oc2c1.[Cl-] [rhodamine B]
- release profile from alginate-filled MNAs [1]: curved burst release over the first 6 hours, with slower, more linear release over the next 3 days
- depth after which dye intensity promptly decreased [2]: ~1 mm

Molecule: vascular endothelial growth factor [VEGF]
- average healing rate ([3]; LJI delivery, end of the study): 81%
- average healing rate ([3]; MNA delivery, end of the study): 96%
- average wound size ([3]; MNA delivery, end of the study): 0.04 cm^2
- histological features at the central region of the wounds (H&E) ([3]; TOP-administrated): contained a bed of granulation tissue with a partially healed center
- histological features at the central region of the wounds (H&E) ([3]; intradermal delivery (MNA, LJI)): more advanced wound healing characteristics
- vascularization, IHC staining against CD31 ([3]; intradermal delivery vs topical and controls, 19 days post-injury): Superior vascularization
- overall healing ([3]; intradermal delivery vs topical delivery and controls, 19 days after surgery): improved healing
- wound closure ([3]; topical delivery, end of the 20-day study): about 66%
- wound closure rate compared to negative control groups ([3]; topical delivery, vs no treatment or PBS via MNA and LJI): No significant difference was observed in the wound closure rate
- migration rate (HUVECs): comparable to the positive control group
- scratch closure (HUVECs; in 4 hours): 100%
- expression of SMA+ myofibroblasts (IHC) ([4]; VEGF delivery): decreased the expression of SMA+ myofibroblasts
- vascularization (vWF expression) ([4]; intradermal (MNA) delivery): a significant enhancement in vascularization
- vascularization (vWF expression) ([4]; topical delivery): clearly less effective in inducing vascularization
- wound closure / healing rate ([5]; MNA delivery, 100 μL of 500 ng/mL on days 5 and 7, day 19): 95%
- wound closure compared with other groups ([5]; MNA delivery, day 17 and 19): significantly faster than both topical delivery and negative control groups
- average wound size ([5]; MNA delivery, day 19): 0.04 cm^2
- scarring ([5]; MNA delivery, end of the experiments): no evidence of scaring was observed
- hair growth in the wound area ([5]; topical delivery): no hair growth was observed
- wound closure rate compared to negative control ([5]; topical delivery): No significant difference was observed in the wound closure rate
